Laboratory results: US7820637B2, “Use of 5′-methylthioadenosine (MTA) in the prevention and/or treatment of autoimmune diseases and/or transplant rejection” (Proyecto de Biomedicina Cima, S.L., priority 2005, dated 2010)

Key:
[1] = test system: splenocytes (MBP-specific T-lymphocyte response); test: Lymphocyte proliferation assay (MBP-induced, splenocytes of treated rats); format: cell-based, rat; settings: splenocytes of Lewis rats immunised with MBP, day 16 after immunisation, treated in vivo with MTA; MBP 10 μg/ml
Description: The splenocytes were purified by means of Ficoll Hypaque density centrifugation starting from the rats with EAE and non-immunised rats. The lymphocite proliferation assay was conducted in the same manner as previously described [Villoslada, P., et al., J. Exp Med, 2000. 191 (10):1799-806].
Briefly, the splenocytes were placed in culture at a concentration of 2×10^6/ml in RPMI 1640 medium supplemented with 10% fetal bovine serum and penicillin/streptomycin, in the presence or absence of phytohemagglutinin (PHA, 5 μg/ml), MBP (10 μg/ml), MTA (100 μM) and DMSO. The cultures were incubated for 5 days in 96-well round-base plates (0.2 ml/well) at 37° C. The wells were struck with 0.5 μCi [^3H]TdR for 18 hours. The reading was performed using a liquid scintillation counter. The results were expressed as the mean stimulation index of the triplicate determinations.
In order to determine whether treatment with MTA modified the peripheral immune system's response to the antigen used in the immunisation, the MBP-induced proliferation responses were measured in splenocytes of animals treated with MTA and placebo (in Lewis rats). […] Therefore, it is observed that MTA inhibits the MBP-specific lymphocyte activation, which points to its immunomodulatory effect.

[2] = test system: chronic-recurrent EAE (CR-EAE) in Dark Agouti (DA) rats immunised with MOG; test: Chronic-recurrent EAE (CR-EAE) clinical score and survival in DA rats immunised with rMOG; format: in vivo, rat
[3] = test system: IL-2, IFN-γ, TNF-α, IL-10 and iNOS mRNA; test: Quantitative real-time PCR of cytokine and pro-inflammatory mediator mRNA in splenocytes; format: in vivo, rat; settings: splenocytes of Lewis rats treated with MTA; relative to 18S rRNA (FIG. 5)
Description: Spleen, liver and blood samples were also obtained from each animal. The spleens and the livers were quickly frozen in liquid nitrogen and kept in fragments at −80° C. in order to be able to conduct the studies with RT-PCR (reverse transcription and polymerase chain reaction). The blood was centrifuged at 800 rpm for 10 minutes in order to obtain the serum, which was kept at −80° C.
The spleen and liver tissue segments were homogenised in RNA lysis buffer with 2% β-mercaptoethanol using a manual homogeniser. The total RNA was extracted using the Rneasy Mini Kit (Quiagen), following the manufacturer's instructions. During RNA purification, the DNA was eliminated by treatment with DNase. The RNA concentration and purity was determined by measuring the absorbance at 260 nm and 280 nm with a spectrophotometer (Eppendorf). Reverse transcription of the total RNA was performed using the High Capacity cDNA Archive Kit (Applied Biosystems). […]
For the quantitative PCR, the TaqMan Universal Master Mix (Applied Biosystems) was used. […]
The IL-2, IFN-γ, TNF-α, IL-10 and iNOS mRNA expression levels were quantified in relation to the rRNA 18S constitutive gene.
It was assessed whether MTA had the capacity to modify the expression of cytokines and other pro-inflammatory mediators. The IL-2, IFN-γ, TNF-α, IL-10 and iNOS gene expression was analysed by means of quantitative real-time PCR (RT-PCR). […]

[4] = test system: inflammatory infiltrates in brain and spinal cord of Lewis rats immunised with MBP; test: Histopathology and immunohistochemistry of brain and spinal cord; format: in vivo, rat
Description: The two Lewis rat groups were anaesthetised and injected by intracardiac route with 4% paraformaldehyde in 0.1 M phosphate buffer (pH 7.6) on day 16 of the disease. The brains and the cervical, thoracic and lumbar spinal cord segments were extracted and fixated for the entire night at 4° C. After fixation, the tissues were soaked in paraffin for histopathology and immunohistochemistry.
Histological evaluation of the brain and spinal cord sections included in paraffin was conducted. The sections were stained with hematoxylin-eosin (HE) and Luxol fast-blue in order to be able to assess the tissues' inflammation and demyelination. 24-30 sagital sections were examined for each rat. The blind semi-quantitative histological evaluation of inflammation and demyelination was conducted as previously described [Villoslada, P., et al., J. Exp Med, 2000. 191 (10):1799-806].
The immunohistochemical procedures were conducted on […] brain and medulla sections included in paraffin. The endogenous peroxidase activity was deactivated by means of 0.3% H2O2 in methanol for 20 min.
The sections were incubated for 30 min in PBS with 0.5% Tween® 20 and 10% goat or horse serum (Vector Laboratorios) and for 2 hours in PBS with 0.5% Tween® 20 and the primary antibodies in the following dilutions: rabbit antiglial fibrillary acid polyclonal anti-protein antibody (GFAP), 1:1,000 (Dakocytomation); mouse beta-amyloid precursor anti-protein antibody (APP), 1:100 (Zymed Laboratorios); mouse […] (OX-6), 1:200 (Serotec); rat anti-CD8 antibody, 1:250 (Serotec); type II anti-iNOS antibody, 1:250 (Serotec); rat anti-CD68 antibody (ED1), 1:200 (Serotec) and rat anti-CD43 antibody (W3/13), 1:50 (Serotec). Subsequently, the sections were washed with PBS and incubated for 45 min at room temperature with the appropriate biotinylated secondary IgG antibody (1:100 in PBS; Vector Laboratorios), followed by several washes in PBS/Tween® and a 45-min incubation at room temperature with the avidin-biotin peroxidase complex (ABC, Vector Laboratorios).
The immunoreaction specificity was determined by incubating the sections without the primary antibody. The images were obtained using an optic microscope.
The neuropathological evaluation confirmed the observed clinical protection. […] Inflammatory lesions were found in both the white and grey matter of the cervical, thoracic and lumbar spinal cord, and the brain. […] There were significant differences between the placebo animals and those treated with MTA in terms of both the severity and the central nervous system (CNS) regions affected. Treatment with MTA inhibits the development of inflammatory EAE in Lewis rats immunised with MBP.

[5] = test system: acute EAE in Lewis rats immunised with MBP; test: Acute EAE induction and clinical score in Lewis rats immunised with MBP; format: in vivo, rat
[6] = 100 μM MTA i.p. daily from day 15 after immunisation
[7] = immunohistochemical staining, MTA versus placebo group
[8] = MTA 4.3 mg/animal i.p. daily from immunisation

Question: What does the source list for `CSCC1OC(n2cnc3c(N)ncnc32)C(O)C1O` (stereo not drawn) [MTA, 5′-methylthioadenosine]?
Answer: stimulation index (MBP-specific proliferation response) [1]: 1.18±0.4; Cumulative EAE Score [2, 6]: 23 ± 20; Incidence 2nd outbreak [2, 6]: 10/10; Onset (days) 2nd outbreak [2, 6]: 26 ± 6 days; Max. EAE Score ([2]; 100 μM MTA i.p. daily from day 15 after immunisation, scale 0-5): 1.8 ± 1.5; survival rate versus placebo group ([2]; survival curves to score 3.5 and to exitus (FIG. 3)): significantly higher; mRNA expression of cytokines (IL-2, IFN-γ, TNF-α, IL-10, iNOS) versus placebo group [3]: lower; number of positive ED1 and W3/13 cells in inflammatory infiltrates [4, 7]: higher in the placebo group; proportions of positive OX-6 cells in inflammatory infiltrates [4, 7]: same proportions; stains for APP and iNOS ([4]; immunohistochemical staining, both groups): very low detection levels; number and size of the inflammatory infiltrates versus placebo ([4]; spinal cord and brain, Lewis rats immunised with MBP (FIG. 6)): lower; EAE Incidence (%) [5, 8]: (28.57%); EAE Incidence (rats with EAE / number of rats) [5, 8]: 4/14; Cumulative EAE Score ([5]; MTA i.p. daily from immunisation): 2 ± 0.07; Onset of EAE ([5]; MTA i.p. daily from immunisation, treated animals that developed symptoms): 15 ± 1.2 days
